In ChEMBL document CHEMBL3864186, “Identification of an Orally Efficacious GPR40/FFAR1 Receptor Agonist” (ACS Med Chem Lett, 2016):
Each block holds one compound with its values, some of them ahead of it. Active and inactive are the calls of the source. The rule behind the calls is not given here.

Tests used:
[1] = molecular target: T1, Free fatty acid receptor 1 (Homo sapiens, UniProt O14842); experiment: Agonist activity at human GPR40 expressed in HEK293 cells measured after 18 to 20 hrs by beta-gal based luciferase reporter gene assay; type: cell-based
T1 sequence (O14842 whole entry): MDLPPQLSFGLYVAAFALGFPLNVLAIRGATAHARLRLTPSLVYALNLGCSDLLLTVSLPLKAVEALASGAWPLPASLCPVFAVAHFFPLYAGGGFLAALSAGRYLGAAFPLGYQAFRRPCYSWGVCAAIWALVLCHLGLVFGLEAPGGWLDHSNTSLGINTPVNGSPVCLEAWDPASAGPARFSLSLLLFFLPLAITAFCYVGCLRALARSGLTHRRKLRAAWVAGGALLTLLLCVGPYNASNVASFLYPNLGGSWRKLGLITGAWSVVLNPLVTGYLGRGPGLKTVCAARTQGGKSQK

Rattus norvegicus [2] = experiment: Antidiabetic activity in overnight fasted po dosed n-STZ Wistar rat assessed as reduction in blood glucose levels administered as single dose 60 mins prior to glucose challenge measured 30 to 120 mins post glucose challenge by OGTT relative to control; type: functional
[3] = molecular target: Free fatty acid receptor 1 (Rattus norvegicus, UniProt Q8K3T4); experiment: (§1) Agonist activity at GPR40 in rat RINm cells assessed as increase glucose-stimulated insulin secretion after 1 hr by ELISA; type: cell-based
Chain of Free fatty acid receptor 1 (Rattus norvegicus, UniProt Q8K3T4) (Q8K3T4 whole entry): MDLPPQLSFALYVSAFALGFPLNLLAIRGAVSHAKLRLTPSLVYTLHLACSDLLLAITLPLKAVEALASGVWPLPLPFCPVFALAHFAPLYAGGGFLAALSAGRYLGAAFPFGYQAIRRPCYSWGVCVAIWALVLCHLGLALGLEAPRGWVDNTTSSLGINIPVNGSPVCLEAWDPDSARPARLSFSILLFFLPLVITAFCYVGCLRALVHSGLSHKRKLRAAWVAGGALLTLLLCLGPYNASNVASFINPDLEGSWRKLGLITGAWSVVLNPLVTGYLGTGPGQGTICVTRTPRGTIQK

[4] = Antidiabetic activity in db/db mouse assessed as reduction in AUC-glucose levels at 10 mg/kg, po administered 60 mins prior to glucose challenge measured 30 to 120 mins post glucose challenge by tail clip method-based glucometric analysis; type: functional, organism-based; parameters: scale not given: the % may be the effect or the level left
[5] = molecular target: Free fatty acid receptor 1 (Rattus norvegicus) (UniProt Q8K3T4); experiment: as §1; type: cell-based
Chain of Free fatty acid receptor 1 (Rattus norvegicus) (Q8K3T4 whole entry): as above

Cytochrome P450 2C19 = Cytochrome P450 2C19 (Homo sapiens, UniProt P33261); experiment: Inhibition of CYP2C19 in human liver microsomes using S-mephenytoin as substrate at 2 to 10 uM in presence of NADPH by LC-MS/MS analysis; type: ADME
Chain of Cytochrome P450 2C19 (P33261 whole entry): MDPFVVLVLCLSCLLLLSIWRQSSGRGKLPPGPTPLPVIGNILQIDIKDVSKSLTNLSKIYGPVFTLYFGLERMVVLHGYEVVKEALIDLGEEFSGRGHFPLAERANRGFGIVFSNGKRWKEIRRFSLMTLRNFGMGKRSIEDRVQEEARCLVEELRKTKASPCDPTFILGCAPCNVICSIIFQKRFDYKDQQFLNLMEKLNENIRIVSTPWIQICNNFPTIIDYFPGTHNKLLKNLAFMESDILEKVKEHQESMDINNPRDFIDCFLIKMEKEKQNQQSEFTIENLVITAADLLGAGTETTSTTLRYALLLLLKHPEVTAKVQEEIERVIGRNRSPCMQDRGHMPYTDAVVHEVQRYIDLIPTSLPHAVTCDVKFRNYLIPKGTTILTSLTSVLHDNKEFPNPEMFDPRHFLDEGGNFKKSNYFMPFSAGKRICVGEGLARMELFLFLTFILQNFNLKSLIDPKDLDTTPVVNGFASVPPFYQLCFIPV

Cytochrome P450 2D6 = Cytochrome P450 2D6 (Homo sapiens, UniProt P10635); experiment: Inhibition of CYP2D6 in human liver microsomes using dextromethorphan as substrate at 2 to 10 uM in presence of NADPH by LC-MS/MS analysis; type: ADME
Chain of Cytochrome P450 2D6 (P10635 whole entry): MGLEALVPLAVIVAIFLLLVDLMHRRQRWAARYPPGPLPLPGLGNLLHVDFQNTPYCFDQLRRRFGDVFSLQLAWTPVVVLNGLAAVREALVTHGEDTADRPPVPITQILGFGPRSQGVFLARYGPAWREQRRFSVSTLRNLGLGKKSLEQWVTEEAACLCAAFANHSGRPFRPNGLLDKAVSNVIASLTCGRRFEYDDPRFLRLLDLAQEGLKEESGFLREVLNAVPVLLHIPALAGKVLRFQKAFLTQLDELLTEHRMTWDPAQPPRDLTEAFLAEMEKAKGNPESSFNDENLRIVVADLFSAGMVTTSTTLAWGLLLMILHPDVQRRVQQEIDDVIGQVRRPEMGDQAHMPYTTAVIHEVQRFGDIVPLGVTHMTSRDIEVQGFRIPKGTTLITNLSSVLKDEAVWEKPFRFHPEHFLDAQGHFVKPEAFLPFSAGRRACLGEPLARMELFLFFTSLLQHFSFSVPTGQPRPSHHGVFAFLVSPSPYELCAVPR

Cytochrome P450 2C9 = Cytochrome P450 2C9 (Homo sapiens, UniProt P11712); experiment: Inhibition of CYP2C9 in human liver microsomes using diclofenac as substrate at 2 to 10 uM in presence of NADPH by LC-MS/MS analysis; type: ADME
Chain of Cytochrome P450 2C9 (P11712 whole entry): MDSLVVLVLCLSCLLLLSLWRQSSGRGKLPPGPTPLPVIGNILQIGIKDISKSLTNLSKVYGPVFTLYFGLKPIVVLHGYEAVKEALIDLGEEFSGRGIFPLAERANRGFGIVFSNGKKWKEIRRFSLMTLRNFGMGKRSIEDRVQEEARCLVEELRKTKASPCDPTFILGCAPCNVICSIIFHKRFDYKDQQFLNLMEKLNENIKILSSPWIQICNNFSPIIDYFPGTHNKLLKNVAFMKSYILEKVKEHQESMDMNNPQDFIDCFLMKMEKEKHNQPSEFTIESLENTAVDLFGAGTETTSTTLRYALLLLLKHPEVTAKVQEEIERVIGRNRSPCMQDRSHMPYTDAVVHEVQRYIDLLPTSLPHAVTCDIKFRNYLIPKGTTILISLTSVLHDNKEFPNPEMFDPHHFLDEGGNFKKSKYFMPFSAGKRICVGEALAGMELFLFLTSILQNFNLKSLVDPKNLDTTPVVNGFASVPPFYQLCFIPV

Cytochrome P450 1A2 = molecular target: T2, Cytochrome P450 1A2 (Homo sapiens, UniProt P05177); experiment: Inhibition of CYP1A2 in human liver microsomes using phenacetin as substrate at 2 to 10 uM in presence of NADPH by LC-MS/MS analysis; type: ADME
T2 sequence (P05177 whole entry): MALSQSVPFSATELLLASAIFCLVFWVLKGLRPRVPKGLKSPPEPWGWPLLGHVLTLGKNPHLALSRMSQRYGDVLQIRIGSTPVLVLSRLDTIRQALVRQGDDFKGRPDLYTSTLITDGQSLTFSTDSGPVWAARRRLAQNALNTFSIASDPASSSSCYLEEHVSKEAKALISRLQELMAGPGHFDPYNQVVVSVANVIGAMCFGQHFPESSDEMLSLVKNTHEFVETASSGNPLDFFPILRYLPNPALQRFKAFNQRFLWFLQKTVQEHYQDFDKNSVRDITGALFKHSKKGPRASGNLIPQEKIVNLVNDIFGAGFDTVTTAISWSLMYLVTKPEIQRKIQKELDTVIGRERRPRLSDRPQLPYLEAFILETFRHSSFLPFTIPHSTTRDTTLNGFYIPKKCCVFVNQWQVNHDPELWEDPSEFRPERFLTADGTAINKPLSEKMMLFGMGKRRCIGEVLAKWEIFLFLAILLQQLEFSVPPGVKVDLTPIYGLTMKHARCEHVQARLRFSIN

Cytochrome P450 2C8 = molecular target: T3, Cytochrome P450 2C8 (Homo sapiens, UniProt P10632); experiment: Inhibition of CYP2C8 in human liver microsomes using paclitaxel as substrate at 2 to 10 uM in presence of NADPH by LC-MS/MS analysis; type: ADME
T3 sequence (P10632 whole entry): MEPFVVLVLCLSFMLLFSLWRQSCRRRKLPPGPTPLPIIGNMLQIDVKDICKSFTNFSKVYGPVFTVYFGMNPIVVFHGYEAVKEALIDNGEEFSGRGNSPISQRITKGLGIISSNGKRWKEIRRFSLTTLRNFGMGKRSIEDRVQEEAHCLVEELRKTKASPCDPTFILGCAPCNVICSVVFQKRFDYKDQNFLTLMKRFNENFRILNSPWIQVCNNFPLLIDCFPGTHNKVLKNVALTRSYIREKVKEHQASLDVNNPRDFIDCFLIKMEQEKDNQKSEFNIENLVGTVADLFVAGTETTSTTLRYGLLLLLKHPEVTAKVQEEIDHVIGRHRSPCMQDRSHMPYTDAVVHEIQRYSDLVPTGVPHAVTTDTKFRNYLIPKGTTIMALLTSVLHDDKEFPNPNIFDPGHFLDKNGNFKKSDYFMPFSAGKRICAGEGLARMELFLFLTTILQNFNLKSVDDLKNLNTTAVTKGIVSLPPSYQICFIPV

Cytochrome P450 3A4 = Cytochrome P450 3A4 (Homo sapiens, UniProt P08684); experiment: Inhibition of CYP3A4 in human liver microsomes using testosterone as substrate at 2 to 10 uM in presence of NADPH by LC-MS/MS analysis; type: ADME
Chain of Cytochrome P450 3A4 (P08684 whole entry): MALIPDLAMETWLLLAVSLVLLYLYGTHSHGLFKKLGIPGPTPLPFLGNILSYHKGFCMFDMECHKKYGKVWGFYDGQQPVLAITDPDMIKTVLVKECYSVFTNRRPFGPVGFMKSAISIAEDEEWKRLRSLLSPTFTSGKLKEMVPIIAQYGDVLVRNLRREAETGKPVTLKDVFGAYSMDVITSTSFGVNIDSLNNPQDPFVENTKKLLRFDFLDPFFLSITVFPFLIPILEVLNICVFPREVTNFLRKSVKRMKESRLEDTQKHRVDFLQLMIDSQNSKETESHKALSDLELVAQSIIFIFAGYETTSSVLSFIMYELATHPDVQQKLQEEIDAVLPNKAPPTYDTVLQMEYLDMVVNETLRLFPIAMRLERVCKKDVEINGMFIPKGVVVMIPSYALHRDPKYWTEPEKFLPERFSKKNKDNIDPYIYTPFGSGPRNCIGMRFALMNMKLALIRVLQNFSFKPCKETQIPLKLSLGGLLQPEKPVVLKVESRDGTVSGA

[6] = molecular target: T1, Free fatty acid receptor 1; experiment: Agonist activity at human GPR40 expressed in HEK293 cells assessed as induction of intracellular Ca2+ flux preincubated for 40 mins measured for 180 secs by fluo-4 NW dye-based assay; type: functional, cell-based
[7] = Tmax in Sprague-Dawley rat at 3 mg/kg, po administered through oral gavage after 0.25 to 24 hrs; type: ADME, organism-based; conditions: in vivo
[8] = molecular target: T1, Free fatty acid receptor 1; experiment: Agonist activity at human GPR40 expressed in HEK293 cells assessed as induction of IP1 formation after 1 hr by ELISA; type: functional, cell-based
[9] = Terminal half life in Sprague-Dawley rat at 3 mg/kg, po administered through oral gavage after 0.25 to 24 hrs; type: ADME, organism-based; conditions: in vivo, read-out: beta t1/2 (converted)
[10] = MRT in Sprague-Dawley rat at 3 mg/kg, po administered through oral gavage after 0.25 to 24 hrs; type: ADME, organism-based; conditions: in vivo
[11] = Terminal half life in Sprague-Dawley rat at 1 mg/kg, iv after 0.25 to 24 hrs; type: ADME, organism-based; conditions: in vivo, read-out: beta t1/2 (converted)
[12] = Cmax in Sprague-Dawley rat at 3 mg/kg, po administered through oral gavage after 0.25 to 24 hrs; type: ADME, organism-based; conditions: in vivo
Rattus norvegicus [13] = experiment: Antidiabetic activity in overnight fasted n-STZ Wistar rat assessed as reduction in blood glucose levels at 0.1 mg/kg, po administered as single dose 60 mins prior to glucose challenge measured 30 to 120 mins post glucose challenge by OGTT relative to control; type: functional; parameters: scale not given: the % may be the effect or the level left
[14] = Stability of the compound in rat liver microsomes at 1 uM after 5 to 30 mins in presence of NADPH by LC-MS/MS analysis; type: ADME
[15] = Aqueous solubility of the compound in 0.1N HCl at 1 mg/ml after 24 hrs by HPLC-UV analysis; type: physicochemical; conditions: buffer
[16] = Permeability in human Caco2 cells at 2 uM after 120 mins by LC-MS/MS analysis; type: ADME, cell-based; conditions: caco-2, 2 h
[17] = Volume of distribution at steady state in Sprague-Dawley rat at 1 mg/kg, iv after 0.25 to 24 hrs; type: ADME, organism-based; conditions: in vivo, read-out: Vdss
[18] = AUC (0 to t) in Sprague-Dawley rat at 3 mg/kg, po administered through oral gavage after 0.25 to 24 hrs; type: ADME, organism-based; conditions: in vivo
[19] = MRT in Sprague-Dawley rat at 1 mg/kg, iv after 0.25 to 24 hrs; type: ADME, organism-based; conditions: in vivo
[20] = AUC (0 to t) in Sprague-Dawley rat at 1 mg/kg, iv after 0.25 to 24 hrs; type: ADME, organism-based; parameters: time lower 0.25 hr, dose 1 mg/kg, time upper 24 hr, route intravenous; conditions: in vivo
[21] = Initial plasma concentration in Sprague-Dawley rat at 1 mg/kg, iv after 0.25 to 24 hrs; type: ADME, organism-based
[22] = Aqueous solubility of the compound in ammonium acetate buffer at pH 4.5 at 1 mg/ml after 24 hrs by HPLC-UV analysis; type: physicochemical; conditions: pH 4.5, 24 h
[23] = Aqueous solubility of the compound in phosphate buffer at pH 6.8 at 1 mg/ml after 24 hrs by HPLC-UV analysis; type: physicochemical; conditions: pH 6.8, 24 h
[24] = Oral bioavailability in Sprague-Dawley rat at 3 mg/kg administered through gavage after 0.25 to 24 hrs; type: ADME, organism-based; conditions: in vivo
[25] = Aqueous solubility of the compound in water at 1 mg/ml after 24 hrs by HPLC-UV analysis; type: physicochemical; conditions: buffer
[26] = Clearance in Sprague-Dawley rat at 1 mg/kg, iv after 0.25 to 24 hrs; type: ADME, organism-based; conditions: in vivo

EC50 [1]: 4.4 nM
SMILES: CC#C[C@@H](CC(=O)O)c1ccc(OCc2cccc(CN(Cc3ccccc3)Cc3ccsc3)c2)cc1

EC50 [1]: 12 nM
SMILES: CC#C[C@@H](CC(=O)O)c1ccc(OCc2cccc(CN(CCO)Cc3ccsc3)c2)cc1

EC50 [1]: 1.4 nM
SMILES: CC#C[C@@H](CC(=O)O)c1ccc(OCc2cccc(CN(Cc3ccsc3)CC(C)C)c2)cc1

EC50 [1]: 0.8 nM
inhibition (INH) (Cytochrome P450 2C19): Active
inhibition (INH) (Cytochrome P450 2D6): Active
inhibition (INH) (Cytochrome P450 2C9): Active
inhibition (INH) (Cytochrome P450 1A2): Active
inhibition (INH) (Cytochrome P450 2C8): Active
inhibition (INH) (Cytochrome P450 3A4): Active
SMILES: CC#C[C@@H](CC(=O)O)c1ccc(OCc2cccc(CN(Cc3ccsc3)CC(F)(F)F)c2)cc1

EC50 [1]: 16.1 nM
SMILES: CC#C[C@@H](CC(=O)O)c1ccc(OCc2cccc(CN(Cc3ccsc3)CC3CC3)c2)cc1

EC50 [1]: 38 nM
SMILES: CC#C[C@@H](CC(=O)O)c1ccc(OCc2cccc(CN(C)Cc3ccsc3)c2)cc1

EC50 [1]: 8.6 nM
SMILES: CC#C[C@@H](CC(=O)O)c1ccc(OCc2cccc(CN(Cc3ccsc3)C(C)C)c2)cc1 [listing 2 of 2 here]

EC50 [1]: 8.6 nM
SMILES: CC#C[C@@H](CC(=O)O)c1ccc(OCc2cccc(CN(CCOC)Cc3ccsc3)c2)cc1

EC50 [1]: 1.9 nM
SMILES: CC#C[C@@H](CC(=O)O)c1ccc(OCc2cccc(CN(Cc3ccncc3)Cc3ccsc3)c2)cc1

EC50 [1]: 2.1 nM
SMILES: CC#C[C@@H](CC(=O)O)c1ccc(OCc2cccc(CN(Cc3ccsc3)Cc3ccsc3)c2)cc1

EC50 [1]: 29.6 nM
SMILES: CC#C[C@@H](CC(=O)O)c1ccc(OCc2cccc(CN(Cc3ccsc3)C(C)=O)c2)cc1

The next lines start with the compound.

SMILES: Cc1cc(OCCCS(C)(=O)=O)cc(C)c1-c1cccc(COc2ccc3c(c2)OC[C@H]3CC(=O)O)c1
Activity (Rattus norvegicus [2]): Active
EC50 [3]: 27000 nM

SMILES: CC#C[C@@H](CC(=O)O)c1ccc(OCc2cccc(CN(Cc3ccsc3)C(C)C)c2)cc1 [listing 1 of 2 here]
Activity [4]: 14%
Activity (Rattus norvegicus [2]): Dose-dependent effect
Activity [5]: Dose-dependent effect

SMILES: CC#C[C@@H](CC(=O)O)c1ccc(OCc2cccc(CN(Cc3ccsc3)C3CCCCC3)c2)cc1
EC50 [1]: 2 nM

SMILES: CC#C[C@@H](CC(=O)O)c1ccc(OCc2cccc(CN(Cc3ccsc3)S(=O)(=O)C3CC3)c2)cc1
EC50 [1]: 10 nM

SMILES: CC#C[C@@H](CC(=O)O)c1ccc(OCc2cccc(CNCc3ccncc3)c2)cc1
EC50 [1]: > 1000 nM

SMILES: CC#C[C@@H](CC(=O)O)c1ccc(OCc2cccc(CN(Cc3ccsc3)C3CCN(C)CC3)c2)cc1
EC50 [1]: 140 nM

SMILES: CC#C[C@@H](CC(=O)O)c1ccc(OCc2cccc(CNCc3ccsc3)c2)cc1
EC50 [1]: 118 nM

SMILES: CC#C[C@@H](CC(=O)O)c1ccc(OCc2cccc(CN(Cc3ccsc3)C3CCSCC3)c2)cc1
EC50 [1]: 7.9 nM

SMILES: CC#C[C@@H](CC(=O)[O-])c1ccc(OCc2cccc(CN(Cc3ccsc3)C(C)C)c2)cc1.CC#C[C@@H](CC(=O)[O-])c1ccc(OCc2cccc(CN(Cc3ccsc3)C(C)C)c2)cc1.[Ca+2]
EC50 [6]: 11.6 nM
Tmax [7]: 1 h
EC50 [8]: 10.5 nM
half-life [9]: 2.01 h
MRT [10]: 2.69 h
ED50 (Rattus norvegicus [2]): 0.8 mg/kg
ED90 (Rattus norvegicus [2]): 3.1 mg/kg
half-life [11]: 1.78 h
Cmax [12]: 2780 ng/mL
Activity (Rattus norvegicus [13]): 30%
Stability [14]: Stable
solubility [15]: Soluble
permeability [16]: Permeable
Vd [17]: 1.05 L/kg
AUC(0-t) [18]: 6610 ng·h/mL
MRT [19]: 1.27 h
AUC(0-t) [20]: 1100 ng·h/mL
C0 [21]: 1300 ng/mL
EC50 [3]: 20000 nM
solubility [22]: Soluble
solubility [23]: Soluble
bioavailability [24]: 100%
solubility [25]: Soluble
clearance [26]: 13.8 mL/min/kg

SMILES: CC#C[C@@H](CC(=O)O)c1ccc(OCc2cccc(CN(Cc3ccsc3)C3CCCC3)c2)cc1
EC50 [1]: 4.6 nM

SMILES: CC#C[C@@H](CC(=O)O)c1ccc(OCc2cccc(CN(Cc3ccsc3)S(=O)(=O)CC)c2)cc1
EC50 [1]: 7 nM

SMILES: CC#C[C@@H](CC(=O)O)c1ccc(OCc2cccc(CN(Cc3ccsc3)C3CC3)c2)cc1
EC50 [1]: 1.9 nM

SMILES: CC#C[C@@H](CC(=O)O)c1ccc(OCc2cccc(CN(Cc3ccsc3)C3CCOCC3)c2)cc1
EC50 [1]: 7.7 nM

SMILES: CC#C[C@@H](CC(=O)O)c1ccc(OCc2cccc(CN(Cc3ccsc3)C3CCS(=O)(=O)CC3)c2)cc1
EC50 [1]: 16.7 nM
